Data published in the supplement of paper PMC10307832.

compound: O=C(/C=C/c1ccccc1)NC(NC(=S)Nc1cccc2cccnc12)C(Cl)(Cl)Cl [Salubrinal] + NC(=O)Nc1cc(-c2cccc(F)c2)sc1C(=O)N[C@H]1CCCNC1 [AZD7762] (partner 0.2 µM); assay: relative viability (nuclei count vs DMSO), 5 days (fraction); higher = more cells survive; conditions: first compound 0.08 µM
Summary of the method: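 Lung cancer cell lines in 1536-well plates were dosed by pin tool the day after seeding, either with one drug alone or with a fixed anchor-drug dose plus five library-drug doses (not always all listed) in √10 steps. After 5 days, cells were fixed and their nuclei stained in one step (final 0.05% Triton X-100, 1% formaldehyde, 1 ug/ml Hoechst), then counted on 4× images. Relative viability is the nuclei count in treated wells divided by that in vehicle wells. Values are medians of duplicate plates.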

**Q.** How did the relative viability turn out when NCI-H1793 was run?
**A.** 0.676

**Q.** With NCI-H2405 as the cell line, how does the relative viability read?
**A.** 0.872

**Q.** With HOP-62 as the cell line, how does the relative viability read?
**A.** 0.589

**Q.** For HCC-44, which relative viability is on record?
**A.** 1.02

**Q.** With LU99A as the cell line, how does the relative viability read?
**A.** 0.459

**Q.** With BEN as the cell line, how does the relative viability read?
**A.** 0.642

**Q.** With HARA as the cell line, how does the relative viability read?
**A.** 0.374

**Q.** HCC-78 was tested. Which relative viability did it give?
**A.** 0.699

**Q.** NCI-H322M was tested. Which relative viability did it give?
**A.** 0.576

**Q.** For LCLC-97TM1, which relative viability is on record?
**A.** 0.268

**Q.** Which relative viability does the source give for A-427 here?
**A.** 0.892

**Q.** How did the relative viability turn out when NCI-H441 was run?
**A.** 1.28

**Q.** Which relative viability does the source give for NCI-H1734 here?
**A.** 0.596

**Q.** For NCI-H460, which relative viability is on record?
**A.** 0.627

**Q.** With NCI-H2347 as the cell line, how does the relative viability read?
**A.** 0.537

**Q.** How did the relative viability turn out when NCI-H1395 was run?
**A.** 0.376

**Q.** Which relative viability does the source give for 201T here?
**A.** 0.627

**Q.** How did the relative viability turn out when NCI-H1915 was run?
**A.** 0.713

**Q.** Which relative viability does the source give for HCC-827 here?
**A.** 0.193

**Q.** How did the relative viability turn out when LXF-289 was run?
**A.** 1.25

**Q.** NCI-H23 was tested. Which relative viability did it give?
**A.** 0.175

**Q.** NCI-H647 was tested. Which relative viability did it give?
**A.** 0.616

**Q.** NCI-H1651 was tested. Which relative viability did it give?
**A.** 0.464

**Q.** With EPLC-272H as the cell line, how does the relative viability read?
**A.** 0.229

**Q.** With NCI-H1792 as the cell line, how does the relative viability read?
**A.** 0.514

**Q.** With NCI-H1355 as the cell line, how does the relative viability read?
**A.** 0.788

**Q.** With NCI-H3122 as the cell line, how does the relative viability read?
**A.** 1.16

**Q.** With NCI-H1437 as the cell line, how does the relative viability read?
**A.** 1.19

**Q.** Which relative viability does the source give for NCI-H1755 here?
**A.** 0.668

**Q.** With HCC-15 as the cell line, how does the relative viability read?
**A.** 1.4

**Q.** Which relative viability does the source give for PC-14 here?
**A.** 0.485

**Q.** Which relative viability does the source give for EKVX here?
**A.** 0.78

**Q.** LC-2-ad was tested. Which relative viability did it give?
**A.** 0.946

same assay, conditions: first compound 0.253 µM

**Q.** With NCI-H1793 as the cell line, how does the relative viability read?
**A.** 0.407

**Q.** For NCI-H2405, which relative viability is on record?
**A.** 0.704

**Q.** How did the relative viability turn out when HOP-62 was run?
**A.** 0.468

**Q.** HCC-44 was tested. Which relative viability did it give?
**A.** 1.01

**Q.** For LU99A, which relative viability is on record?
**A.** 0.319

**Q.** Which relative viability does the source give for BEN here?
**A.** 0.727

**Q.** How did the relative viability turn out when HARA was run?
**A.** 0.254

**Q.** With HCC-78 as the cell line, how does the relative viability read?
**A.** 0.599

**Q.** With NCI-H322M as the cell line, how does the relative viability read?
**A.** 0.531

**Q.** For LCLC-97TM1, which relative viability is on record?
**A.** 0.288

**Q.** With A-427 as the cell line, how does the relative viability read?
**A.** 0.716

**Q.** Which relative viability does the source give for NCI-H441 here?
**A.** 0.87

**Q.** With NCI-H1734 as the cell line, how does the relative viability read?
**A.** 0.657

**Q.** For NCI-H460, which relative viability is on record?
**A.** 0.546

**Q.** How did the relative viability turn out when NCI-H2347 was run?
**A.** 0.82

**Q.** NCI-H1395 was tested. Which relative viability did it give?
**A.** 0.443

**Q.** With 201T as the cell line, how does the relative viability read?
**A.** 0.616

**Q.** Which relative viability does the source give for HCC-827 here?
**A.** 0.191

**Q.** Which relative viability does the source give for LXF-289 here?
**A.** 1.06

**Q.** Which relative viability does the source give for NCI-H23 here?
**A.** 0.206

**Q.** How did the relative viability turn out when NCI-H647 was run?
**A.** 0.435

**Q.** Which relative viability does the source give for NCI-H1651 here?
**A.** 0.423

**Q.** With EPLC-272H as the cell line, how does the relative viability read?
**A.** 0.191

**Q.** For NCI-H1355, which relative viability is on record?
**A.** 0.711

**Q.** Which relative viability does the source give for NCI-H3122 here?
**A.** 0.979

**Q.** NCI-H1437 was tested. Which relative viability did it give?
**A.** 1.1

**Q.** For NCI-H1755, which relative viability is on record?
**A.** 0.406

**Q.** For HCC-15, which relative viability is on record?
**A.** 1.22

**Q.** With PC-14 as the cell line, how does the relative viability read?
**A.** 0.422

**Q.** How did the relative viability turn out when EKVX was run?
**A.** 0.591

**Q.** LC-2-ad was tested. Which relative viability did it give?
**A.** 0.832

same assay, conditions: first compound 0.8 µM

**Q.** With NCI-H1793 as the cell line, how does the relative viability read?
**A.** 0.505

**Q.** With NCI-H2405 as the cell line, how does the relative viability read?
**A.** 0.835

**Q.** With HOP-62 as the cell line, how does the relative viability read?
**A.** 0.958

**Q.** How did the relative viability turn out when HCC-44 was run?
**A.** 1.02

**Q.** With LU99A as the cell line, how does the relative viability read?
**A.** 0.401

**Q.** For BEN, which relative viability is on record?
**A.** 0.802

**Q.** Which relative viability does the source give for HARA here?
**A.** 0.25

**Q.** Which relative viability does the source give for HCC-78 here?
**A.** 0.758

**Q.** For NCI-H322M, which relative viability is on record?
**A.** 0.599

**Q.** How did the relative viability turn out when LCLC-97TM1 was run?
**A.** 0.227

**Q.** With A-427 as the cell line, how does the relative viability read?
**A.** 0.755

**Q.** For NCI-H441, which relative viability is on record?
**A.** 1.03

**Q.** With NCI-H1734 as the cell line, how does the relative viability read?
**A.** 0.613

**Q.** How did the relative viability turn out when NCI-H460 was run?
**A.** 0.722

**Q.** For NCI-H2347, which relative viability is on record?
**A.** 0.919

**Q.** How did the relative viability turn out when NCI-H1395 was run?
**A.** 0.389

**Q.** How did the relative viability turn out when 201T was run?
**A.** 0.741
